What was measured:
Test in all cases: Kinobeads competition binding, L-363 cell lysate
Parameters in all cases: endogenous in cells
Details in all cases: 10 μM free compound, L-363 lysate
GCK = target: T1, GCK (Homo sapiens, UniProt Q12851)
T1 sequence (Q12851 1-820): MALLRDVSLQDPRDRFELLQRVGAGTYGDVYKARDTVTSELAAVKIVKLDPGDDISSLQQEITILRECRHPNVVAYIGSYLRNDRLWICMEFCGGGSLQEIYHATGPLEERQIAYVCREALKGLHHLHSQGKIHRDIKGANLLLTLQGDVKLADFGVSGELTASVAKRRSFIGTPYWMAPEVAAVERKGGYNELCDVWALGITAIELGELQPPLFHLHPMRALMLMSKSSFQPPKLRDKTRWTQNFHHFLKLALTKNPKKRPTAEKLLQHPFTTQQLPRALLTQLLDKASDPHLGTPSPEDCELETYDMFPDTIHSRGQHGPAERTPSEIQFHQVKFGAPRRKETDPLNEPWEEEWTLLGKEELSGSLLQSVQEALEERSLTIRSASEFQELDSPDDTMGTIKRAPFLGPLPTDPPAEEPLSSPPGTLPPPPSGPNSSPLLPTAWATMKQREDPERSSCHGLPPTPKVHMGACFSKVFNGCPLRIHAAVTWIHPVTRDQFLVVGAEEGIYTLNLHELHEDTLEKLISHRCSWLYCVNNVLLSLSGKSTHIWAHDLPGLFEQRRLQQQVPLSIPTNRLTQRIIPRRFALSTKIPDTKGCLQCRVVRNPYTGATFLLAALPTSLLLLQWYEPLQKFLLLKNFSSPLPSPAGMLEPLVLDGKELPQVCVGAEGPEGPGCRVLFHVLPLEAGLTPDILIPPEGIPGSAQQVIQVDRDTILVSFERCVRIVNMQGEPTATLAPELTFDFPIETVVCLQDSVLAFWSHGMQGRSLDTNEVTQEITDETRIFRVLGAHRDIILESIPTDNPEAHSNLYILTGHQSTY
Method in brief: (§1)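 Competition readout: iTRAQ 114/117 reporter-ion ratios from LC-MS/MS, compound-treated versus DMSO lysate. Free compound at 10 μM competed for kinase binding before addition of immobilized-compound beads. Source lysate came from L-363 cells exposed to 20 μM MG132 for three hours.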

TEC = target: T2, TEC (Homo sapiens, UniProt P42680)
T2 sequence (P42680 1-631): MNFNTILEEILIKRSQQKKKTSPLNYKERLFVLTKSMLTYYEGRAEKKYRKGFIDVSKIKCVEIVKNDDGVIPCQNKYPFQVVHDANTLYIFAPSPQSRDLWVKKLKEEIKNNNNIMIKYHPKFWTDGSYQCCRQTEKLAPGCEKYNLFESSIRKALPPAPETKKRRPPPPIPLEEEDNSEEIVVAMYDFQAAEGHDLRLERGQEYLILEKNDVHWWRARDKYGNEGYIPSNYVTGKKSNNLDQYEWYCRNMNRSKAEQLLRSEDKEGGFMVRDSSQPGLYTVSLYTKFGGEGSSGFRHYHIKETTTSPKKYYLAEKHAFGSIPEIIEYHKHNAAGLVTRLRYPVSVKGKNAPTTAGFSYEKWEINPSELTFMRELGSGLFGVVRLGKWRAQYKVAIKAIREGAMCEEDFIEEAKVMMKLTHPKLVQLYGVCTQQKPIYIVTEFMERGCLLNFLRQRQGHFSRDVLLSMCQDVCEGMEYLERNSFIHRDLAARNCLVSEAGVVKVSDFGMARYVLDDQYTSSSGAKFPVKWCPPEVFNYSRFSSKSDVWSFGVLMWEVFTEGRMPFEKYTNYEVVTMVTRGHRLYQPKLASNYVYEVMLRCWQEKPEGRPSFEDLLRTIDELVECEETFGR
Method in brief: as §1

CaMK2d = CaMK2d (Homo sapiens, UniProt Q13557)
Sequence of CaMK2d (Q13557 whole entry): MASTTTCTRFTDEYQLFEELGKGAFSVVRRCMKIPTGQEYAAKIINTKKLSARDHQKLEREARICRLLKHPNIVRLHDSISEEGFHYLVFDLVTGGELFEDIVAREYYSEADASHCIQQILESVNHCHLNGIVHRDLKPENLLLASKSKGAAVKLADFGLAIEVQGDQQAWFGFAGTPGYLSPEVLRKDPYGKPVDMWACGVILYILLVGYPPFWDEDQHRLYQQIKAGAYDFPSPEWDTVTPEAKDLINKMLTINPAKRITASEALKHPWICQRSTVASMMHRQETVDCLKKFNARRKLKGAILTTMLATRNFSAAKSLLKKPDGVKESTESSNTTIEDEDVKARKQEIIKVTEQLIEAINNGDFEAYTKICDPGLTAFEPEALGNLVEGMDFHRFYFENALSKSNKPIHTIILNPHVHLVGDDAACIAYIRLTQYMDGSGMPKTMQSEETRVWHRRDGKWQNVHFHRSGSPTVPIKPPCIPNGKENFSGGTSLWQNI
Method in brief: as §1

QIK = QIK (Homo sapiens, UniProt Q9H0K1)
Sequence of QIK (Q9H0K1 whole entry): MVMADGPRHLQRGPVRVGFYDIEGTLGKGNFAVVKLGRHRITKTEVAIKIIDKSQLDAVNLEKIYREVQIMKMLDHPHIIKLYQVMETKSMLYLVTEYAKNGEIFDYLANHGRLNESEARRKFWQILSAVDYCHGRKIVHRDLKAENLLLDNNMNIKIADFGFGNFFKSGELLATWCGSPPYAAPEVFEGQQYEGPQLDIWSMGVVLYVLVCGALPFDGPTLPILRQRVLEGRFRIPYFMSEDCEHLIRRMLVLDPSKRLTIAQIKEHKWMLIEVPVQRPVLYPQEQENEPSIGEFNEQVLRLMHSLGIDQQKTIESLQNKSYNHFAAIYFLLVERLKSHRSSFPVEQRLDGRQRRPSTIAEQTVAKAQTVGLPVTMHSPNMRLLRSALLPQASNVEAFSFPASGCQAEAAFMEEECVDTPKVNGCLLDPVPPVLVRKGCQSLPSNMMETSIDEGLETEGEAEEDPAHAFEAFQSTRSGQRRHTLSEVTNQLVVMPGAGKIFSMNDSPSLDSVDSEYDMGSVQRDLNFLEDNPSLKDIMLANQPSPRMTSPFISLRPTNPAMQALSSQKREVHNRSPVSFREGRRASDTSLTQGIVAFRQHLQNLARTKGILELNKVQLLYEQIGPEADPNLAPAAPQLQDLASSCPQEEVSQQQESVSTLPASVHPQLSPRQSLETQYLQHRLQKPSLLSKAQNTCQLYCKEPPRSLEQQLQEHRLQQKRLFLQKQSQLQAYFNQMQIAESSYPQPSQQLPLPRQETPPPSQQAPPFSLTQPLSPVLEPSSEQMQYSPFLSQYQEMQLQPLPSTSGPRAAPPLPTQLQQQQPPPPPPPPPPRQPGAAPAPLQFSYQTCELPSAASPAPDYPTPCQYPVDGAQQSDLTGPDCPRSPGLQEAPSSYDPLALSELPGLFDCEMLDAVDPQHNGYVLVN
Method in brief: as §1

AurA = target: T3, AurA (Homo sapiens, UniProt O14965)
T3 sequence (O14965 1-403): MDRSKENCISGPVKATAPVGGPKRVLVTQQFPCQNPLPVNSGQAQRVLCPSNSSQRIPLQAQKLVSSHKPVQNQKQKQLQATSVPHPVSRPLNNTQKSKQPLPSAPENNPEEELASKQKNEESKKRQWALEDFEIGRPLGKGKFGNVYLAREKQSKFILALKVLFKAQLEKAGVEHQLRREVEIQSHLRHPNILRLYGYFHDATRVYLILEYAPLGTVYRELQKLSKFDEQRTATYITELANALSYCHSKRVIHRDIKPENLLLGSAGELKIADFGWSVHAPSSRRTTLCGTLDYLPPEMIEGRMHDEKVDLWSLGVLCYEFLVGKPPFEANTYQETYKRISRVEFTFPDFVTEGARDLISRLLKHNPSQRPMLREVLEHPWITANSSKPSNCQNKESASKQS
Method in brief: as §1

inhibition at 10 µM (GCK): 95.1%
inhibition at 10 µM (TEC): 92.8%
inhibition at 10 µM (CaMK2d): 78%
inhibition at 10 µM (QIK): 96.5%
inhibition at 10 µM (AurA): 97%
SMILES: CS(=O)(=O)Nc1ccccc1Nc1nc(Nc2cccc(OCCN)c2)ncc1Cl [CZC31326, N-(2-(2-(3-(2-aminoethoxy)phenylamino)-5-chloropyrimidin-4-ylamino)phenyl)methanesulfonamide]
